Data: patent publication US20070225245A1, “Viral vector driven mutant bacterial cytosine deaminase gene and uses thereof” (priority 1998, published 2007)
≈ marks a conversion by molar mass, not a printed value.

Columns and labels:
[1] = system: WiDr human colon cancer cells; assay: Radiation dose response, colony formation after Ad infection and 5-FC; assay type: cell-based; conditions: No Viral Infection, 20 mg/ml 5-FC
Method: WiDr human colon cancer cells were plated at a density of 5×10^5 cells/well in 6-well tissue culture plates 24 hours prior to adenoviral infection. WiDr cells were then infected with AdCMVCD at a multiplicity of infection (MOI) of 1 or 10 plaque forming units (pfu) per cell in 0.5 ml Opti-Mem (Gibco-BRL) for 1.5 hours. A control virus that encodes the reporter gene E. coli LacZ which produces β-galactosidase (AdCMVLacZ) was provided by Dr. De-Chu Tang. Viral infection was stopped by the addition of 3 ml of complete growth media and the cells were returned to the incubator overnight. The following day, media was replaced with media supplemented with the appropriate concentration of 5-FC or no drug. The cells were then incubated in 5-FC for 3 days. The cells were then mock irradiated or irradiated on ice using a Picker ^60Co therapy unit (Cleveland, Ohio) at a dose rate of 80 cGy/min. The cells were then plated for colony formation. Colonies formed in 14 days and were fixed in ethanol and stained with 1% crystal violet.
SK-ChA-1 cells were infected with 10 MOI of AdCMVCD, or AdCMVLacZ, treated with 0, 10 or 20 μg/ml 5-FC for 72 hours, then irradiated with 0 or 8 Gy (80 cGy/min). The cells were irradiated on ice, then trypsinized, counted and plated in triplicate in 25 cm^2 tissue culture dishes (Costar) in media free of 5-FC. The plates were fixed and stained 14 days later. For both WiDr and SK-ChA-1 cells, colonies containing greater than 50 cells were counted. Percent survival was calculated as the average number of colonies counted divided by the number of cells plated times plating efficiency (PE); where PE was the fraction of colonies counted divided by cells plated without radiation. The dose response curve was fitted using the Fit v 2.4 software (provided by Dr. N. Albright, University of California at San Francisco, San Francisco, Calif.).

Panc2.03 xenografts = assay: Subcutaneous human pancreatic tumor xenograft, tumor growth; assay type: in vivo, athymic nude mice; conditions: PBS plus 5-FC
Method: Animals were injected i.t. with 1×10^7 TCID50 of AdbCD-D314A or 1×10^8 TCID50 of AdbCDwt on Days 0, 7, and 14. 5-FC was administered i.p. at 400 mg/kg qd×5/week for 3 weeks starting on Day 1. Data points represent the mean change in tumor surface area relative to Day 0 for each group of animals.
To compare anti-tumor effects of AdbCD-D314A and AdbCDwt mediated molecular chemotherapy on established solid tumors, 7×10^6 Panc2.03 pancreatic cancer cells were injected s.c. into female athymic nude mice. Treatment was started 11 days post-tumor cell injection at the time of established tumor growth (tumors were 6-8 mm in diameter), noted as Day 0. Animals were randomly divided into groups receiving different treatments: 1) AdbCDwt plus 5-FC; 2) AdbCD-D314A plus 5-FC; 3) AdbCD-D314A plus PBS; 4) PBS plus 5-FC. Mice were injected i.t. with 1×10^8 TCID50 per tumor AdbCDwt or with 1×10^7 TCID50 AdbCD-D314A on Days 0, 7, and 14. Three groups of mice (# 1, 2 and 4) received 5-FC i.p. at 400 mg/kg on Days 1 to 5, 8 to 12, and 15 to 19.

D54MG = assay: 5-FC or 5-FU toxicity (MTS) in Ad-infected cells; assay type: cell-based; conditions: Homo sapiens, Table 14, MOI 0
Method: (§1) Next, cytosine deaminase was administered to glioma cells via the replication deficient adenovirus. Glioma cells plated in T25 flasks were infected with AdCMVCD at several multiplicities of infection (MOI 0-300 pfu/cell) for 1 h at 37° C. At twenty-four hours post-infection, cells were harvested, replated at 5×10^3 cells/well in 96 well plates, and allowed to adhere overnight. […]
(§2) To test this hypothesis, 5-FC toxicity (IC50) was compared in cells infected with AdCMVCD versus AdCDUPRT. […] In Table 13 mean 5-FC IC50 was obtained from 2-5 separate experiments. Cells were infected with AdCMVCD or AdCDUPRT at the indicated MOI (pfu/cell) for 1 h at 37° C. 5-FC toxicity was determined by MTS assay 5 days after drug addition.

U251MG = assay: 5-FC or 5-FU toxicity (MTS) in Ad-infected cells; assay type: cell-based; conditions: Homo sapiens, U-251, Table 14, MOI 0
Method: as §1, §2

U87MG = assay: 5-FC or 5-FU toxicity (MTS) in Ad-infected cells; assay type: cell-based; conditions: Homo sapiens, U-87 MG, Table 14, MOI 0
Method: as §1, §2

Row | Structure (SMILES) | Linear Quadratic Parameters a [1] | Linear Quadratic Parameters al [1] | Linear Quadratic Parameters b [1] | Single Hit Multiple Target Do [1] | Single Hit Multiple Target Dq [1] | mean time to tumor doubling (Panc2.03 xenografts) [days] | IC50 (D54MG) [µg/mL] | IC50 (U251MG) [µg/mL] | IC50 (U87MG) [µg/mL]
1 | Nc1nc(=O)[nH]cc1F [5-FC, 5-fluorocytosine] | 0 | 0 | 0.04 | 1.760 | 3.679 | 22 | – | – | –
2 | O=c1[nH]cc(F)c(=O)[nH]1 [5-FU, 5-fluorouracil] | – | – | – | – | – | – | 1.3 (≈ 9.99 µM) | 0.4 (≈ 3.08 µM) | 1.8 (≈ 13.8 µM)
